# From ChEMBL document CHEMBL3046021, “Docking and QSAR studies of new 1,4-dihydropyridines containing 4(5)-chloro-2-methyl-5(4)-imidazolyl substituent” (Med Chem Res, 2012)
# Target: Voltage-dependent L-type calcium channel subunit alpha-1C (Cavia porcellus, UniProt O35505)
# Experiment: Inhibition of L-type calcium channel in Cavia porcellus (guinea pig) ileal SMC assessed as inhibition of 80 mM KCl-induced current
# Voltage-dependent L-type calcium channel subunit alpha-1C, sequence (O35505 whole entry): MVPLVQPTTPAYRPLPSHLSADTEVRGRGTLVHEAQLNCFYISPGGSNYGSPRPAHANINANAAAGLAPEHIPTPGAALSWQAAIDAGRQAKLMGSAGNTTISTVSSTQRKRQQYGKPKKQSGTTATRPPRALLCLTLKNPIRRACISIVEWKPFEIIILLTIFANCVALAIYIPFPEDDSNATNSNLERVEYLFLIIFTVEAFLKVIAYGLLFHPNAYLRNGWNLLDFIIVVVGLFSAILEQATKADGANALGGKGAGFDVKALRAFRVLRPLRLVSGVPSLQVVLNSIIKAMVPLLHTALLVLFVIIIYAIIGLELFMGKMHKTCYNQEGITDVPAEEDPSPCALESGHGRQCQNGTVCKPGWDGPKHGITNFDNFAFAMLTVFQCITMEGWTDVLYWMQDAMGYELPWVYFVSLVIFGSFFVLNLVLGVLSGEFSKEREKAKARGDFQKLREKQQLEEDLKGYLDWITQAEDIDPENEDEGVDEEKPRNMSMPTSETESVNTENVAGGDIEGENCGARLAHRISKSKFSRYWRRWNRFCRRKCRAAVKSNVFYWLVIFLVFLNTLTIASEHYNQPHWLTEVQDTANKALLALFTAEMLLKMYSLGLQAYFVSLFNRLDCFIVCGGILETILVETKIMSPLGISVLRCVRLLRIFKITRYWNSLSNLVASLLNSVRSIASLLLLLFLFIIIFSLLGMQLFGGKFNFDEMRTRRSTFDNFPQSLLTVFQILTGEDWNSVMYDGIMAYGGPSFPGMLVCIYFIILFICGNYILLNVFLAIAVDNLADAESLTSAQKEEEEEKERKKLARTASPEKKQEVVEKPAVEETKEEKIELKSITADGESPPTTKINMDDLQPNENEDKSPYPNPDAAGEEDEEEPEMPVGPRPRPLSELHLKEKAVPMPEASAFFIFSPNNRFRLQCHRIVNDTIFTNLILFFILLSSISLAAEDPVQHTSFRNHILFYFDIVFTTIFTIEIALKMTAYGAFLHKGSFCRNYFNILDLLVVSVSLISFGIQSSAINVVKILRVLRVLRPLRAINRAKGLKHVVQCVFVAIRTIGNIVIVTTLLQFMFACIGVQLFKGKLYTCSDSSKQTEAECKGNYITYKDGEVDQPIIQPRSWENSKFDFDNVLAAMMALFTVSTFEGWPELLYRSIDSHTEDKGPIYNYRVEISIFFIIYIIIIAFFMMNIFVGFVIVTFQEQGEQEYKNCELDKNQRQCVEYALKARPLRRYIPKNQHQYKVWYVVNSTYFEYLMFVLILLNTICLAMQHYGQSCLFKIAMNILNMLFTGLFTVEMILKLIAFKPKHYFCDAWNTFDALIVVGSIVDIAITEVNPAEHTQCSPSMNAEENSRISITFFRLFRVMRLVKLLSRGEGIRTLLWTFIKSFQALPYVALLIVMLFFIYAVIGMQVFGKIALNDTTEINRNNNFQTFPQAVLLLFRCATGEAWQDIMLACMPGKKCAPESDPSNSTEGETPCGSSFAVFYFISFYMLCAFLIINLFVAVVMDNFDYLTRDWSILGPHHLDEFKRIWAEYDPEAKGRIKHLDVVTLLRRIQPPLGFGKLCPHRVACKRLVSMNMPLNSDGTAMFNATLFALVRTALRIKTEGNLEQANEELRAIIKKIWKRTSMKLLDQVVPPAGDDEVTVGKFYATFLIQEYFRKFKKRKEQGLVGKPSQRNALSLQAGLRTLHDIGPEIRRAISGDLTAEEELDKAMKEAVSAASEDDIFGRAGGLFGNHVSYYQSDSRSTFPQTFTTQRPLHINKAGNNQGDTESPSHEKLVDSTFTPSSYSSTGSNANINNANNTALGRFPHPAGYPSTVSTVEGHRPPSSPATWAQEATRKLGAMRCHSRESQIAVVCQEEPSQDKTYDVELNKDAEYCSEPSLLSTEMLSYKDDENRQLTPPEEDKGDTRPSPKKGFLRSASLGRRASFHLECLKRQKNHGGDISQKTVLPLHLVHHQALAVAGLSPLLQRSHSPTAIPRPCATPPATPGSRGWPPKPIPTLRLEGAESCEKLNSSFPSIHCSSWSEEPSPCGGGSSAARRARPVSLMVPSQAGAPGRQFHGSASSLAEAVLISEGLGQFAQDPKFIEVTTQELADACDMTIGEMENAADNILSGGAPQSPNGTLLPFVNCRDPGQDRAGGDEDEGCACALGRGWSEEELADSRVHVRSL
row,Compound,IC50 [nM]
1,CCCOC(=O)C1=C(C)NC(C)=C(C(=O)OC)C1c1[nH]c(C)nc1Cl (stereo not drawn),437
2,COC(=O)C1=C(C)NC(C)=C(C(=O)OC(C)(C)C)C1c1[nH]c(C)nc1Cl (stereo not drawn),1860
3,COC(=O)C1=C(C)NC(C)=C(C(=O)OCC2CCCCC2)C1c1[nH]c(C)nc1Cl (stereo not drawn),355
4,COC(=O)C1=C(C)NC(C)=C(C(=O)OCc2ccccc2)C1c1[nH]c(C)nc1Cl (stereo not drawn),93.3
5,COC(=O)C1=C(C)NC(C)=C(C(=O)OCCc2ccccc2)C1c1[nH]c(C)nc1Cl (stereo not drawn),79.4
6,CCCOC(=O)C1=C(C)NC(C)=C(C(=O)OCC)C1c1[nH]c(C)nc1Cl (stereo not drawn),407
7,COC(=O)C1=C(C)NC(C)=C(C(=O)OC)C1c1[nH]c(C)nc1Cl,1200
8,CCOC(=O)C1=C(C)NC(C)=C(C(=O)OCC)C1c1[nH]c(C)nc1Cl,437
9,CCOC(=O)C1=C(C)NC(C)=C(C(=O)OC(C)(C)C)C1c1[nH]c(C)nc1Cl (stereo not drawn),1660
10,CCOC(=O)C1=C(C)NC(C)=C(C(=O)OCC2CCCCC2)C1c1[nH]c(C)nc1Cl (stereo not drawn),513
11,CC1=C(C(=O)OCc2ccccc2)C(c2nc(C)[nH]c2Cl)C(C(=O)OCc2ccccc2)=C(C)N1,41.7
12,CC1=C(C(=O)OCCc2ccccc2)C(c2nc(C)[nH]c2Cl)C(C(=O)OCCc2ccccc2)=C(C)N1,0.182
13,CC1=C(C(=O)OCCCc2ccccc2)C(c2nc(C)[nH]c2Cl)C(C(=O)OCCCc2ccccc2)=C(C)N1,1.74
14,CCOC(=O)C1=C(C)NC(C)=C(C(=O)OCc2ccccc2)C1c1[nH]c(C)nc1Cl (stereo not drawn),91.2
15,CCOC(=O)C1=C(C)NC(C)=C(C(=O)OCCc2ccccc2)C1c1[nH]c(C)nc1Cl (stereo not drawn),70.8
16,CCCOC(=O)C1=C(C)NC(C)=C(C(=O)OCCC)C1c1[nH]c(C)nc1Cl,63.1
17,CC1=C(C(=O)OC(C)C)C(c2[nH]c(C)nc2Cl)C(C(=O)OC(C)C)=C(C)N1,38
18,CC1=C(C(=O)OCC(C)C)C(c2[nH]c(C)nc2Cl)C(C(=O)OCC(C)C)=C(C)N1,95.5
19,CC1=C(C(=O)OC(C)(C)C)C(c2[nH]c(C)nc2Cl)C(C(=O)OC(C)(C)C)=C(C)N1,4070
20,CC1=C(C(=O)OC2CCCC2)C(c2[nH]c(C)nc2Cl)C(C(=O)OC2CCCC2)=C(C)N1,97.7
21,CC1=C(C(=O)OC2CCCCC2)C(c2[nH]c(C)nc2Cl)C(C(=O)OC2CCCCC2)=C(C)N1,955
22,CC1=C(C(=O)OCC2CCCCC2)C(c2[nH]c(C)nc2Cl)C(C(=O)OCC2CCCCC2)=C(C)N1,631
23,CCOC(=O)C1=C(C)NC(C)=C(C(=O)OC)C1c1[nH]c(C)nc1Cl (stereo not drawn),661
